Test results from patent US4169941A, “Derivatives of XK-88-5 and process for the production thereof” (Abbott Laboratories, priority 1976, dated 1979).
In brackets after ≈: the same amount, converted by molar mass. Where two headings read alike, the source gives them in different places.

Columns and labels:
[1] = test system: Bacillus subtilis KY 4273; assay: MIC, agar dilution method (pH 8.0); format: cell-based; conditions: KY4273, read-out: minimum inhibitory concentration (MIC)
Source text: (§1) The following Table 1 illustrates minimum inhibitory concentrations (MIC) of 2"-N-formyl-XK-88-5 against various Gram-positive and Gram-negative bacteria determined by agar dilution method (pH 8.0).

Erwinia aroideae KY 3241 = assay: MIC, agar dilution method (pH 8.0); format: cell-based; conditions: Pectobacterium carotovorum, KY3241, read-out: minimum inhibitory concentration (MIC)
Source text: as §1

Escherichia coli KY 4271 = assay: MIC, agar dilution method (pH 8.0); format: cell-based; conditions: KY4271, read-out: minimum inhibitory concentration (MIC)
Source text: as §1

[2] = test system: Klebsiella pheumoniae KY 4275; assay: MIC, agar dilution method (pH 8.0); format: cell-based; conditions: KY4275, read-out: minimum inhibitory concentration (MIC)
Source text: as §1

Proteus vulgaris KY 4277 = assay: MIC, agar dilution method (pH 8.0); format: cell-based; conditions: KY4277, read-out: minimum inhibitory concentration (MIC)
Source text: as §1

[3] = test system: Pseudomonas alkaligenes KY 4656; assay: MIC, agar dilution method (pH 8.0); format: cell-based; conditions: KY4656, read-out: minimum inhibitory concentration (MIC)
Source text: as §1

[4] = test system: Salmonella typhosa KY 4278; assay: MIC, agar dilution method (pH 8.0); format: cell-based; conditions: Salmonella enterica, pH 8, read-out: minimum inhibitory concentration (MIC)
Source text: as §1

Shigella sonnei KY 4281 = assay: MIC, agar dilution method (pH 8.0); format: cell-based; conditions: KY4281, read-out: minimum inhibitory concentration (MIC)
Source text: as §1

[5] = test system: Staphylococcus aureus Ky 4279; assay: MIC, agar dilution method (pH 8.0); format: cell-based; conditions: KY4279, read-out: minimum inhibitory concentration (MIC)
Source text: as §1

Vibrio percolans KY 4174 = assay: MIC, agar dilution method (pH 8.0); format: cell-based; conditions: Comamonas terrigena, KY4174, read-out: minimum inhibitory concentration (MIC)
Source text: as §1

[6] = test system: various Gram-positive and Gram-negative bacteria; assay: antibacterial activity (general statement); format: cell-based; conditions: in words
Source text: as §1

[7] = test system: various Gram-positive and Gram-negative bacteria; conditions: in words; parent antibiotic, background; cited from earlier work

SMILES | MIC [1] [µg/mL] | MIC (Erwinia aroideae KY 3241) [µg/mL] | MIC (Escherichia coli KY 4271) [µg/mL] | MIC [2] [µg/mL] | MIC (Proteus vulgaris KY 4277) [µg/mL] | MIC [3] [µg/mL] | MIC [4] [µg/mL] | MIC (Shigella sonnei KY 4281) [µg/mL] | MIC [5] [µg/mL] | MIC (Vibrio percolans KY 4174) [µg/mL] | antibacterial activity [6] | antibacterial activity [7]
COC1COC(OC2C(N)CC(N)C(OC3OC(CN)CC(O)C3N)C2O)C(NC=O)C1N (stereo not drawn) [2"-N-formyl-XK-88-5] | 0.32 (≈ 0.669 µM) | 1.25 (≈ 2.61 µM) | 2.5 (≈ 5.22 µM) | 0.64 (≈ 1.34 µM) | 2.5 (≈ 5.22 µM) | 2.5 (≈ 5.22 µM) | 2.5 (≈ 5.22 µM) | 2.5 (≈ 5.22 µM) | 0.32 (≈ 0.669 µM) | 10 (≈ 20.9 µM) | strong antibacterial activity | 
COC1COC(OC2C(N)CC(N)C(OC3OC(CN)CC(O)C3N)C2O)C(N)C1N (stereo not drawn) [XK-88-5] |  |  |  |  |  |  |  |  |  |  |  | high antibacterial activity
